# US20160317531A1, “RIBONUCLEOTIDE REDUCTASE INHIBITORS SENSITIZE TUMOR CELLS TO DNA DAMAGING AGENTS” (THE GENERAL HOSPITAL CORPORATION, priority 2013, published 2016)
# Key:
# [1] = test system: Notch signalling; experiment: RBP-Jk-Fluc reporter assay in 293T cells; type: cell-based
# Description: 293T cells were infected with lenti-RBP-Jk-Fluc vector and treated with 50 μM HU or γ-secretase inhibitor DAPT for […]. Cell lysates was imaged and analyzed for Fluc activity with the Xenogen IVIS 200 Imaging System. **p<0.01 vs. DMSO (n=8 for DMSO, n=5 for HU or DAPT treatment).
# (§1) Since HU is known to target ribonucleotide reductase subunit 2 (RNR), knockdown experiment was first performed in different cell lines using shRNA against RNR (shRNR) or scrambled control (ShScram) and different concentrations of TMZ. […] Other ribonucleotide reductase (RNR) inhibitors were further evaluated to determine if a similar effect as HU is obtained on GBM. GBM cells from recurrent tumors expressing Gluc were treated in a 96-well plate with either fludarabine or gemcitabine—classical RNR inhibitors—and cell viability was assessed by the Gluc assay. […] The RBP-Jk-Fluc reporter plasmid which carries RBP-Jk transcriptional response element driving the expression of Fluc34 was used. RBP-Jk is a DNA binding transcription factor and a direct downstream modulator of Notch signalling. Thus, this reporter can indirectly monitor Notch activity (Minoguchi, S., et al., Mol Cell Biol 1997, 17, 2679-2687). 293T cells were transfected with this plasmid, treated with 30 μM HU, and monitored Fluc activity 3 days later.
# [2] = type: in vivo; details: mice treated four consecutive days; HU 30 mg/kg, TMZ 30 mg/kg
# Description: Primary GBM8 cells24 (from newly diagnosed tumor with methylated MGMT (Wakimoto, H., et al., Neuro Oncol 2012, 14, 132-144)) were grown in stem cell media as neural spheres. […] Upon intracranial injection, these cells formed tumors and infiltrated the brain of nude mice similar to human tumors (FIGS. 4A-4C). This model was used to test the efficacy of HU in combination with TMZ. Four weeks after implantation of 100,000 GBM8 cells, when tumors started to rapidly grow (as observed by Fluc imaging), mice were divided into two groups (n=20/group) which received DMSO vehicle or i.p. injection of 30 mg/kg TMZ four days/week over two weeks. […] Mice were then left off TMZ to allow for GBM tumors to recur potentially becoming resistant to TMZ, recapitulating the patient scenario. […] Next, the toxicity of this combined therapy was assessed by treating mice with either DMSO, TMZ, HU, or HU+TMZ for four consecutive days and analyzing the blood for white blood cells (WBC), hematocrit (HCT), mean corpuscular volume (MCV), red cell distribution width (RDW), hemoglobin (HGB), mean corpuscular hemoglobin (MCH), red blood cells (RBC), platelets (PLT), and mean platelet volume (MPV). […] Hematotoxicity on bone marrow was also evaluated by preparing bone marrow smears and counting viable cells from untreated and TMZ/HU-treated naïve mice as above.
# [3] = test system: U87 tumors; experiment: Intracranial U87-Fluc tumor model, Fluc imaging and survival; details: 5 mg/kg TMZ i.p., 50 mg/kg HU i.p., start one week post-implantation
# Description: U87 cells (20,000 cells/mouse) expressing Fluc were implanted in the brain of nude mice. One week later, mice were divided in four groups (n=10-20/group) and treated with 1). DMSO vehicle as control, 2). 50 mg/kg HU, 3). 1 mg/kg TMZ or 4). 1 mg/kg TMZ+50 mg/kg HU. In FIG. 2A, tumor growth was monitored over time by Fluc imaging. X-axis, days after treatment starts. In FIG. 2B, survival was recorded to generate the Kaplan-Meier plot. X-axis, days after treatment starts.
# U87 cells (20,000 cells/mouse) expressing Fluc were implanted in the brain of nude mice. One week later, mice were divided in four groups (n=10-20/group) and treated with 1). DMSO vehicle as control, 2). 50 mg/kg HU, 3). 5 mg/kg TMZ or 4). 5 mg/kg TMZ+50 mg/kg HU. In FIG. 2C, tumor growth was monitored over time by Fluc imaging. X-axis, days after treatment starts. In FIG. 2D, survival was recorded to generate the Kaplan-Meier plot. X-axis, days after treatment starts.
# U87 or U87R1 cells were first transduced with a lentivirus vector to stably express firefly luciferase (Fluc), a reporter which can be used to track tumor growth in vivo (Wurdinger, T., et al., Nat Methods 2008, 5, 171-173). Fifty thousands of these cells were intracranially injected in the brain of nude mice as previously described. One week post-tumor implantation, mice were randomized into four different groups receiving: (1) DMSO vehicle control; (2) intraperitoneal (i.p) injection of 5 mg/kg TMZ; (3) 50 mg/kg HU i.p.; (4) combination of TMZ+HU. Tumor growth was monitored over time by in vivo Fluc bioluminescence imaging using a cooled CCD camera (Wurdinger, T., et al., Nat Methods 2008, 5, 171-173).
# GBM cells were first transduced with a lentivirus vector to stably express Fluc. Fifty thousands of these cells were intracranially injected in the brain of nude mice using the following coordinates from the bregma in mm: anterior-posterior +0.5 mm, medio-lateral +2.0 mm, dorso-ventral −2.5 mm. One week after implantation of 50,000 (low amount) or 200,000 (high amount) GBM cells, or 100 GBM spheres, mice were randomized into different treatment groups. Tumor growth was monitored over time by in vivo Fluc bioluminescence imaging after i.p. injection of 200 mg/kg D-luciferin substrate and acquiring signal using a cooled CCD camera (Wurdinger, T., et al., Nat Methods 2008, 5, 171-173).
# [4] = test system: U87R1, U87R2, SNZ308R1, SNZ308R2, HS683R1 and HS683R2 TMZ-resistant cells; experiment: Gluc cell viability assay, TMZ-resistant glioma subclones; type: cell-based
# Description: (§2) FIG. 1A is a set of graphs showing the effects of TMZ on tumor cells. U87, SNZ308, HS683 parental cells (P) and resistant clones (Res) were treated with different amounts of TMZ. After four days aliquots of conditioned medium were assayed for Gluc activity using 50 μl 2 μg/ml coelenterazine.
# FIG. 1B is a set of graphs showing the effects of TMZ+HU on tumor cells. U87 and resistant clones R1/R2 were treated with TMZ and/or 100 μM HU. Cell viability was assessed by the Gluc assay.
# The inventors previously generated two independent TMZ-resistant subclones from three different glioma cell lines (U87, SNZ308 and HS683) by long-term exposure (two times per week over seven weeks) to 100 μM TMZ, generating U87R1, U87R2, SNZ308R1, SNZ308R2, HS683R1 and HS683R2. These cells together with their parental counterparts were first engineered by lentivirus vector transduction to stably express the naturally secreted Gaussia luciferase (Gluc) as a reporter for cell viability. […] In this case, cell viability can be monitored over time by assaying aliquots of conditioned medium from these cells for Gluc activity. […] Using the U87R1 and U87R2 TMZ-resistant cells and the Gluc high-throughput screening assay (Badr, C. E., et al., Assay Drug Dev Technol, 2011 9, 281-289), a small library of 100 known anti-cancer agents was screened in the presence and absence of 100 μM TMZ. […]
# [5] = for certain chemotherapeutics; cited from earlier work
# [6] = test system: malignant gliomas; details: in combination with radiation or cytotoxic chemotherapy, not TMZ; cited from earlier work
# [7] = test system: melanoma cells; experiment: Sensitization of melanoma cells to TMZ; type: cell-based; details: FIG. 7
# [8] = test system: U87R1 tumors; experiment: Intracranial U87R1-Fluc (TMZ-resistant) tumor model, Fluc imaging and survival; details: 5 mg/kg TMZ i.p., 50 mg/kg HU i.p., start one week post-implantation
# Description: U87R1 cells (20,000 cells/mouse) expressing Fluc were implanted in the brain of nude mice. One week later, mice were divided in four groups (n=10-20/group) and treated with 1). DMSO vehicle as control, 2). 50 mg/kg HU, 3). 5 mg/kg TMZ or 4). 5 mg/kg TMZ+50 mg/kg HU. In FIG. 2E, tumor growth was monitored over time by Fluc imaging. […] In FIG. 2F, survival was recorded to generate the Kaplan-Meier plot.
# 200,000 U87R1 cells expressing Fluc were implanted in the brain of nude mice. Two weeks later, mice were divided in two groups (n=10/group) and treated with either TMZ or TMZ+HU. Survival was recorded.
# U87R1 cells expressing Fluc were implanted in the brain of nude mice. One week later, mice were divided in four groups (n=10-20/group) and treated with either DMSO vehicle, radiation (R; 3 Gy), HU, TMZ or R+TMZ+HU. Tumor growth was monitored over time by Fluc imaging and survival was recorded to generate the Kaplan-Meier plot.
# U87 or U87R1 cells were first transduced with a lentivirus vector to stably express firefly luciferase (Fluc), a reporter which can be used to track tumor growth in vivo (Wurdinger, T., et al., Nat Methods 2008, 5, 171-173). Fifty thousands of these cells were intracranially injected in the brain of nude mice as previously described. One week post-tumor implantation, mice were randomized into four different groups receiving: (1) DMSO vehicle control; (2) intraperitoneal (i.p) injection of 5 mg/kg TMZ; (3) 50 mg/kg HU i.p.; (4) combination of TMZ+HU. Tumor growth was monitored over time by in vivo Fluc bioluminescence imaging using a cooled CCD camera (Wurdinger, T., et al., Nat Methods 2008, 5, 171-173). […]
# GBM cells were first transduced with a lentivirus vector to stably express Fluc. […] Tumor growth was monitored over time by in vivo Fluc bioluminescence imaging after i.p. injection of 200 mg/kg D-luciferin substrate and acquiring signal using a cooled CCD camera (Wurdinger, T., et al., Nat Methods 2008, 5, 171-173).
# [9] = test system: TMZ-resistant primary glioma rpGBMa cells; experiment: Gluc cell viability assay, recurrent GBM cells with RNR inhibitors and TMZ; type: cell-based; details: GBM cells from recurrent tumors, four days
# Description: FIG. 5A is a plot showing that glioma cells are sensitized to TMZ by ribonucleotide reductase inhibition. 3×10^3 TMZ-resistant primary glioma rpGBMa cells expressing Gluc were treated with […] of ribonucleotide reductase (RNR) inhibitor Fludarabine or Gemcitabine, in the presence or absence of 100 μM TMZ. After four days aliquots of conditioned medium were assayed for Gluc activity using 50 μl 2 μg/ml coelenterazine. Data presented as the mean Gluc RLU/mL +/−SD (n=8; **p<0.01 vs. no TMZ treatment by two-way ANOVA).
# as §1, with “RBP-Jk is a DNA binding transcription factor and a direct downstream modulator of Notch signalling. Thus, this reporter can indirectly monitor Notch activity (Minoguchi, S., et al., Mol Cell Biol 1997, 17, 2679-2687).” left out
# [10] = test system: GBM8 tumors carrying methylated MGMT promoter; experiment: Intracranial primary GBM8-Fluc-mCherry tumor model; type: in vivo, nude mice
# Description: FIG. 4A is an image showing that 10^5 GBM8 cells expressing Fluc and mCherry were stereotactically injected into the left midstriatum of nude mice brain.
# FIG. 4D is a set of images showing the in vivo effects of TMZ+HU treatments on mice. Mice-bearing GBM8-Fluc-mCherry tumors were treated with TMZ or vehicle for two weeks, then left off TMZ for three weeks. TMZ-treated group was then divided into four subgroups which received vehicle, HU, TMZ, or HU+TMZ.
# Primary GBM8 cells24 (from newly diagnosed tumor with methylated MGMT (Wakimoto, H., et al., Neuro Oncol 2012, 14, 132-144)) were grown in stem cell media as neural spheres. […] Upon intracranial injection, these cells formed tumors and infiltrated the brain of nude mice similar to human tumors (FIGS. 4A-4C). This model was used to test the efficacy of HU in combination with TMZ. Four weeks after implantation of 100,000 GBM8 cells, when tumors started to rapidly grow (as observed by Fluc imaging), mice were divided into two groups (n=20/group) which received DMSO vehicle or i.p. injection of 30 mg/kg TMZ four days/week over two weeks. […] Mice were then left off TMZ to allow for GBM tumors to recur potentially becoming resistant to TMZ, recapitulating the patient scenario. At this point, the TMZ group was divided into four subgroups (n=10/group) which received either DMSO, HU (50 mg/kg), TMZ (30 mg/kg) or HU+TMZ four days/week over three weeks. […] Next, the toxicity of this combined therapy was assessed by treating mice with either DMSO, TMZ, HU, or HU+TMZ for four consecutive days and analyzing the blood for white blood cells (WBC), hematocrit (HCT), mean corpuscular volume (MCV), red cell distribution width (RDW), hemoglobin (HGB), mean corpuscular hemoglobin (MCH), red blood cells (RBC), platelets (PLT), and mean platelet volume (MPV). No significant difference between different treated groups in comparison to DMSO control was found (Table 1). Hematotoxicity on bone marrow was also evaluated by preparing bone marrow smears and counting viable cells from untreated and TMZ/HU-treated naïve mice as above.
# [11] = test system: GBM; details: cited from earlier work
# [12] = test system: U87, SNZ308, HS683 parental cells; experiment: Gluc cell viability assay, parental glioma cell lines; type: cell-based; details: different amounts of TMZ, four days
# Description: as §2
# The inventors previously generated two independent TMZ-resistant subclones from three different glioma cell lines (U87, SNZ308 and HS683) by long-term exposure (two times per week over seven weeks) to 100 μM TMZ, generating U87R1, U87R2, SNZ308R1, SNZ308R2, HS683R1 and HS683R2. These cells together with their parental counterparts were first engineered by lentivirus vector transduction to stably express the naturally secreted Gaussia luciferase (Gluc) as a reporter for cell viability. […] In this case, cell viability can be monitored over time by assaying aliquots of conditioned medium from these cells for Gluc activity. […] Using the U87R1 and U87R2 TMZ-resistant cells and the Gluc high-throughput screening assay (Badr, C. E., et al., Assay Drug Dev Technol, 2011 9, 281-289), a small library of 100 known anti-cancer agents was screened in the presence and absence of 100 μM TMZ. […] The same results were obtained when HU was used in combination with TMZ on SNZ308 and HS683 resistant lines (data not shown).
# [13] = second round, HU 50 mg/kg, TMZ 30 mg/kg, four days/week over three weeks
smiles,measurement,setting,value
C[C@H](NC(=O)Cc1cc(F)cc(F)c1)C(=O)N[C@H](C(=O)OC(C)(C)C)c1ccccc1 [DAPT],change of Fluc activity,[1]; γ-secretase inhibition,decrease of Fluc activity similar to HU
"NC(=O)NO [HU, hydroxyurea]",decrease in Fluc activity,"[1]; 30 μM HU, 3 days",50%
same,MPV,[2],6.3 ± 0.4
same,mice survival,[3],no significant effect
same,tumor growth (Fluc bioluminescence imaging),[3],no significant effect
same,sensitization of resistant cells to TMZ,"[4]; U87R1 and U87R2, 100 μM HU, TMZ",sensitize both resistance cell lines to TMZ
same,effect on blood brain tumor permeability,[5],increases the blood brain tumor permeability of certain chemotherapeutics
same,efficacy in malignant gliomas,[6],limited efficacy
same,sensitization of melanoma cells to TMZ,[7],sensitizes melanoma cells to TMZ
same,mice survival,[8],no significant effect
same,tumor growth (Fluc bioluminescence imaging),[8],no significant effect
"Cn1nnc2c(C(N)=O)ncn2c1=O [TMZ, 4-methyl-5-oxo-2,3,4,6,8-pentazabicyclo[4.3.0]nona-2,7,9-triene-9-carboxamide]","cell viability (Gluc assay), TMZ alone",[9]; 100 μM TMZ,moderate-to-no effect
same,MPV,[2],6.5 ± 0.4
same,mice survival,[3],moderate effect
same,tumor growth (Fluc bioluminescence imaging),[3],moderate effect
same,cell viability (Gluc activity) on exposure to TMZ,"[4]; resistant cell lines, up to 100 μM TMZ",no significant effect
same,"tumor response, first round of treatment","[10]; 30 mg/kg TMZ i.p. four days/week over two weeks, start four weeks after implantation",responded very well
same,"survival rate, recurred tumors after TMZ break",[10]; [13],not a significant increase
same,"tumor volume / tumor growth, recurred tumors after TMZ break",[10]; [13],moderate effect
same,median survival,"[11]; TMZ added to standard of care including surgery and radiation, 12.1 months without",14.6 months
same,patients who die after 5 years,[11]; patients receiving both TMZ and radiation,90%
same,overall 2 years survival,"[11]; randomized phase III, combined therapy, 10.9% without",27.2%
same,cell viability (Gluc activity) on exposure to TMZ,[12],sensitive to TMZ in a dose-dependent fashion
same,tumor growth (Fluc bioluminescence imaging),[8],not on U87R1 tumors
"Nc1ccn([C@@H]2O[C@H](CO)[C@@H](O)C2(F)F)c(=O)n1 [gemcitabine, 4-amino-1-(2-deoxy-2,2-difluoro-β-D-erythro-pentofuranosyl)pyrimidin-2(1H)-on]",sensitization of GBM cells to TMZ,[9]; RNR inhibitor in presence or absence of 100 μM TMZ,sensitized GBM cells to TMZ
